Test results as given in ChEMBL document CHEMBL1130203, “Novel fluoroquinolone antibacterial agents containing oxime-substituted (aminomethyl)pyrrolidines: synthesis and antibacterial activity of 7-(4-(aminomethyl)-3-(methoxyimino)pyrrolidin-1-yl)-1-cyclopropyl-6- fluoro-4-oxo-1,4-dihydro[1,8]naphthyridine-3-carboxylic acid (LB20304)” (J Med Chem, 1997).
Values after ≈ are worked out from the molar mass of the structure shown.

Key:
Type in all cases: functional
[1] = test system: Enterococcus faecalis; assay: Minimum inhibitory concentration (MIC) against Streptococcus faecalis 29212; settings: Enterococcus faecalis; read-out: MIC
[2] = test system: Pseudomonas aeruginosa; assay: Minimum inhibitory concentration (MIC) against Pseudomonas aeruginosa 1912E; settings: Pseudomonas aeruginosa; read-out: MIC
[3] = test system: Staphylococcus epidermidis; assay: Minimum inhibitory concentration (MIC) against Staphylococcus epidermidis 178; settings: Staphylococcus epidermidis; read-out: MIC
[4] = test system: Escherichia coli; assay: Minimum inhibitory concentration (MIC) against Escherichia coli 10536
[5] = test system: Staphylococcus aureus; assay: Minimum inhibitory concentration (MIC) against Staphylococcus aureus 241; settings: Staphylococcus aureus; read-out: MIC
[6] = test system: Escherichia coli; assay: Minimum inhibitory concentration (MIC) against Escherichia coli TEM9 2639E; settings: Escherichia coli; read-out: MIC
[7] = test system: Acinetobacter calcoaceticus; assay: Minimum inhibitory concentration (MIC) against Acinetobacter calcoaceticus
[8] = test system: Staphylococcus aureus; assay: Minimum inhibitory concentration (MIC) against Staphylococcus aureus giorgio
[9] = test system: Escherichia coli; assay: Minimum inhibitory concentration (MIC) against Escherichia coli 3190Y
[10] = test system: Staphylococcus aureus; assay: Minimum inhibitory concentration (MIC) against Staphylococcus aureus 6538p.
[11] = test system: Enterobacter cloacae; assay: Minimum inhibitory concentration (MIC) against Enterobacter cloacae P99
[12] = test system: Staphylococcus epidermidis; assay: Minimum inhibitory concentration (MIC) against Staphylococcus epidermidis 887E
[13] = test system: Klebsiella aerogenes; assay: Minimum inhibitory concentration (MIC) against Klebsiella aerogenes 1082E; settings: Klebsiella aerogenes; read-out: MIC
[14] = test system: Bacillus subtilis; assay: Minimum inhibitory concentration (MIC) against Bacillus subtilis ATCC 6633
[15] = test system: Acinetobacter calcoaceticus; assay: Minimum inhibitory concentration (MIC) against Acinetobacter calcoaceticus 15473; settings: Acinetobacter calcoaceticus; read-out: MIC
[16] = test system: Acinetobacter calcoaceticus; assay: Minimum inhibitory concentration (MIC) against Acinetobacter calcoaceticus 5473

MIC [1] | MIC [2] | MIC [3] | MIC [4] | MIC [5] | MIC [6] | MIC [7] | MIC [8] | MIC [9] | MIC [10] | MIC [11] | MIC [12] | MIC [13] | MIC [14] | MIC [15] | MIC [16] | SMILES
0.031 µg/mL (≈ 0.0763 µM) | 0.25 µg/mL (≈ 0.615 µM) | 0.5 µg/mL (≈ 1.23 µM) | < 0.008 µg/mL | 0.5 µg/mL (≈ 1.23 µM) | 0.031 µg/mL (≈ 0.0763 µM) | 0.031 µg/mL (≈ 0.0763 µM) | < 0.008 µg/mL | < 0.008 µg/mL | < 0.008 µg/mL | 0.016 µg/mL (≈ 0.0394 µM) | < 0.008 µg/mL | 0.031 µg/mL (≈ 0.0763 µM) | < 0.008 µg/mL |  |  | CO/N=C1\CN(c2c(F)cc3c(=O)c(C(=O)O)cn(C4CC4)c3c2F)CC1CN (stereo unspecified)
0.063 µg/mL (≈ 0.151 µM) | 1 µg/mL (≈ 2.4 µM) | 1 µg/mL (≈ 2.4 µM) | < 0.008 µg/mL | 2 µg/mL (≈ 4.79 µM) | 0.063 µg/mL (≈ 0.151 µM) |  | < 0.008 µg/mL | < 0.008 µg/mL | < 0.008 µg/mL | < 0.008 µg/mL | < 0.008 µg/mL | 0.13 µg/mL (≈ 0.311 µM) | < 0.008 µg/mL | 0.031 µg/mL (≈ 0.0743 µM) |  | CC(C)O/N=C1\CN(c2nc3c(cc2F)c(=O)c(C(=O)O)cn3C2CC2)CC1CN (stereo unspecified)
0.25 µg/mL (≈ 0.666 µM) | 2 µg/mL (≈ 5.33 µM) | 8 µg/mL (≈ 21.3 µM) | 0.031 µg/mL (≈ 0.0826 µM) | 8 µg/mL (≈ 21.3 µM) | 0.13 µg/mL (≈ 0.346 µM) |  | 0.031 µg/mL (≈ 0.0826 µM) | 0.016 µg/mL (≈ 0.0426 µM) | 0.031 µg/mL (≈ 0.0826 µM) | 0.031 µg/mL (≈ 0.0826 µM) | 0.031 µg/mL (≈ 0.0826 µM) | 0.13 µg/mL (≈ 0.346 µM) | 0.016 µg/mL (≈ 0.0426 µM) | 0.13 µg/mL (≈ 0.346 µM) |  | NCC1CN(c2nc3c(cc2F)c(=O)c(C(=O)O)cn3C2CC2)C/C1=N\O (stereo unspecified)
0.13 µg/mL (≈ 0.282 µM) | 0.5 µg/mL (≈ 1.08 µM) | 8 µg/mL (≈ 17.3 µM) | 0.063 µg/mL (≈ 0.137 µM) | 8 µg/mL (≈ 17.3 µM) | 0.25 µg/mL (≈ 0.542 µM) |  | 0.031 µg/mL (≈ 0.0672 µM) | 0.008 µg/mL (≈ 0.0173 µM) | 0.031 µg/mL (≈ 0.0672 µM) | 0.063 µg/mL (≈ 0.137 µM) | 0.016 µg/mL (≈ 0.0347 µM) | 0.25 µg/mL (≈ 0.542 µM) | 0.016 µg/mL (≈ 0.0347 µM) | 0.13 µg/mL (≈ 0.282 µM) |  | CO/N=C1\CN(c2nc3c(cc2F)c(=O)c(C(=O)O)cn3-c2ccc(F)cc2F)CC1CN (stereo unspecified)
0.016 µg/mL (≈ 0.038 µM) | 0.25 µg/mL (≈ 0.593 µM) | 0.25 µg/mL (≈ 0.593 µM) | < 0.008 µg/mL | 0.25 µg/mL (≈ 0.593 µM) | 0.016 µg/mL (≈ 0.038 µM) |  | < 0.008 µg/mL | 0.016 µg/mL (≈ 0.038 µM) | < 0.008 µg/mL | < 0.008 µg/mL | < 0.008 µg/mL | 0.016 µg/mL (≈ 0.038 µM) | < 0.008 µg/mL |  | 0.031 µg/mL (≈ 0.0736 µM) | CO/N=C1\CN(c2c(F)c(N)c3c(=O)c(C(=O)O)cn(C4CC4)c3c2F)CC1CN (stereo unspecified)
0.063 µg/mL (≈ 0.151 µM) | 1 µg/mL (≈ 2.4 µM) | 1 µg/mL (≈ 2.4 µM) | < 0.008 µg/mL | 2 µg/mL (≈ 4.79 µM) | 0.063 µg/mL (≈ 0.151 µM) |  | < 0.008 µg/mL | < 0.008 µg/mL | 0.008 µg/mL (≈ 0.0192 µM) | < 0.008 µg/mL | < 0.008 µg/mL | 0.13 µg/mL (≈ 0.311 µM) | < 0.008 µg/mL | 0.031 µg/mL (≈ 0.0743 µM) |  | CCCO/N=C1\CN(c2nc3c(cc2F)c(=O)c(C(=O)O)cn3C2CC2)CC1CN (stereo unspecified)
1 µg/mL (≈ 2.4 µM) | 16 µg/mL (≈ 38.3 µM) | 16 µg/mL (≈ 38.3 µM) | 0.13 µg/mL (≈ 0.311 µM) | 32 µg/mL (≈ 76.7 µM) | 1 µg/mL (≈ 2.4 µM) |  | 0.13 µg/mL (≈ 0.311 µM) | 0.063 µg/mL (≈ 0.151 µM) | 0.13 µg/mL (≈ 0.311 µM) | 0.13 µg/mL (≈ 0.311 µM) | 0.13 µg/mL (≈ 0.311 µM) | 0.016 µg/mL (≈ 0.0383 µM) | 0.016 µg/mL (≈ 0.0383 µM) | 0.5 µg/mL (≈ 1.2 µM) |  | CO/N=C1\CN(c2nc3c(cc2F)c(=O)c(C(=O)O)cn3C2CC2)CC1CN(C)C (stereo unspecified)
0.031 µg/mL (≈ 0.0798 µM) | 0.25 µg/mL (≈ 0.644 µM) | 4 µg/mL (≈ 10.3 µM) | < 0.008 µg/mL | 4 µg/mL (≈ 10.3 µM) | 0.031 µg/mL (≈ 0.0798 µM) |  | 0.016 µg/mL (≈ 0.0412 µM) | < 0.008 µg/mL | 0.008 µg/mL (≈ 0.0206 µM) | 0.008 µg/mL (≈ 0.0206 µM) | 0.016 µg/mL (≈ 0.0412 µM) | 0.031 µg/mL (≈ 0.0798 µM) | < 0.008 µg/mL |  | 0.13 µg/mL (≈ 0.335 µM) | CO/N=C1\CN(c2cc3c(cc2F)c(=O)c(C(=O)O)cn3C2CC2)CC1CN (stereo unspecified)

SMILES | MIC [1] | MIC [2] | MIC [3] | MIC [4] | MIC [5] | MIC [6] | MIC [7] | MIC [8] | MIC [9] | MIC [10] | MIC [11] | MIC [12] | MIC [13] | MIC [14] | MIC [15] | MIC [16]
CO/N=C1\CN(c2nc3c(cc2F)c(=O)c(C(=O)O)cn3C2CC2)CC1CN (stereo in doubt) [GEMIFLOXACIN] | 0.063 µg/mL (≈ 0.162 µM) | 0.25 µg/mL (≈ 0.642 µM) | 4 µg/mL (≈ 10.3 µM) | < 0.008 µg/mL | 4 µg/mL (≈ 10.3 µM) | 0.031 µg/mL (≈ 0.0796 µM) |  | < 0.008 µg/mL | < 0.008 µg/mL | < 0.008 µg/mL | < 0.008 µg/mL | < 0.008 µg/mL | 0.031 µg/mL (≈ 0.0796 µM) | < 0.008 µg/mL | 0.063 µg/mL (≈ 0.162 µM) | 
